According to PubChem BioAssay (NCI):
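These data come from cells grown in 96-well plates and exposed to compound for 48 hours at five concentrations. Here, GI50 denotes the concentration required for 50% inhibition of growth. TGI: total growth inhibition.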

Assays:
Assay in all cases: inhibition of tumour cell growth, NCI panel, 48 h
CAKI-1 renal = system: CAKI-1 renal
NCI-H226 lung = system: NCI-H226 lung
BT-549 breast = system: BT-549 breast
SW-620 colon = system: SW-620 colon
OVCAR-4 ovarian = system: OVCAR-4 ovarian
NCI-H522 lung = system: NCI-H522 lung
SF-295 CNS = system: SF-295 CNS
UACC-257 melanoma = system: UACC-257 melanoma
NCI-H23 lung = system: NCI-H23 lung
HCC-2998 colon = system: HCC-2998 colon
OVCAR-8 ovarian = system: OVCAR-8 ovarian
CCRF-CEM leukemia = system: CCRF-CEM leukemia
SNB-19 CNS = system: SNB-19 CNS
HOP-92 NSCLC = system: HOP-92 NSCLC
OVCAR-5 ovarian = system: OVCAR-5 ovarian
MOLT-4 leukemia = system: MOLT-4 leukemia
MDA-MB-435 = system: MDA-MB-435
SN12C renal = system: SN12C renal
MALME-3M melanoma = system: MALME-3M melanoma
NCI-H460 lung = system: NCI-H460 lung
MDA-MB-231 breast = system: MDA-MB-231 breast
HOP-62 NSCLC = system: HOP-62 NSCLC
SR leukemia = system: SR leukemia
TK-10 renal = system: TK-10 renal
SK-MEL-2 melanoma = system: SK-MEL-2 melanoma
EKVX NSCLC = system: EKVX NSCLC
HS 578T breast = system: HS 578T breast
NCI/ADR-RES ovarian = system: NCI/ADR-RES ovarian
SF-268 CNS = system: SF-268 CNS
PC-3 prostate = system: PC-3 prostate
COLO 205 colon = system: COLO 205 colon
OVCAR-3 ovarian = system: OVCAR-3 ovarian
UO-31 renal = system: UO-31 renal
M14 melanoma = system: M14 melanoma
IGROV1 ovarian = system: IGROV1 ovarian
ACHN renal = system: ACHN renal
A498 renal = system: A498 renal
KM12 colon = system: KM12 colon
LOX IMVI melanoma = system: LOX IMVI melanoma
HCT-15 colon = system: HCT-15 colon
U251 CNS = system: U251 CNS
UACC-62 melanoma = system: UACC-62 melanoma
HCT-116 colon = system: HCT-116 colon
SK-OV-3 ovarian = system: SK-OV-3 ovarian
MCF7 breast = system: MCF7 breast
T-47D breast = system: T-47D breast
786-0 renal = system: 786-0 renal
A549 NSCLC = system: A549 NSCLC
RXF 393 renal = system: RXF 393 renal
SK-MEL-5 melanoma = system: SK-MEL-5 melanoma
DU-145 prostate = system: DU-145 prostate
SF-539 CNS = system: SF-539 CNS
HL-60(TB) leukemia = system: HL-60(TB) leukemia
SK-MEL-28 melanoma = system: SK-MEL-28 melanoma
RPMI-8226 leukemia = system: RPMI-8226 leukemia
K-562 leukemia = system: K-562 leukemia

c1cc2ccc3cc2cc1CNCCN1CCNCc2ccc4ccc(cc4c2)CNCCN(CCNC3)CCNCc2ccc3ccc(cc3c2)CNCC1
GI50 (CAKI-1 renal): 41 µM
TGI (CAKI-1 renal): > 100 µM
GI50 (NCI-H226 lung): 2.27 µM
TGI (NCI-H226 lung): 6.11 µM
GI50 (BT-549 breast): 2.51 µM
TGI (BT-549 breast): 7.77 µM
GI50 (SW-620 colon): 3.36 µM
TGI (SW-620 colon): > 100 µM
GI50 (OVCAR-4 ovarian): 2.89 µM
TGI (OVCAR-4 ovarian): 7.22 µM
GI50 (NCI-H522 lung): 0.431 µM
TGI (NCI-H522 lung): 5.56 µM
GI50 (SF-295 CNS): 11.9 µM
TGI (SF-295 CNS): 38.9 µM
GI50 (UACC-257 melanoma): 3.93 µM
TGI (UACC-257 melanoma): > 100 µM
GI50 (NCI-H23 lung): 1.98 µM
TGI (NCI-H23 lung): 5.99 µM
GI50 (HCC-2998 colon): 2.27 µM
TGI (HCC-2998 colon): 6.4 µM
GI50 (OVCAR-8 ovarian): 3.61 µM
TGI (OVCAR-8 ovarian): > 100 µM
GI50 (CCRF-CEM leukemia): 2.34 µM
TGI (CCRF-CEM leukemia): > 100 µM
GI50 (SNB-19 CNS): 2.66 µM
TGI (SNB-19 CNS): 8.38 µM
GI50 (HOP-92 NSCLC): 1.31 µM
TGI (HOP-92 NSCLC): 5.41 µM
GI50 (OVCAR-5 ovarian): 2.38 µM
TGI (OVCAR-5 ovarian): 7.96 µM
GI50 (MOLT-4 leukemia): 2.82 µM
TGI (MOLT-4 leukemia): 9.35 µM
GI50 (MDA-MB-435): 2.41 µM
TGI (MDA-MB-435): 6.25 µM
GI50 (SN12C renal): 1.71 µM
TGI (SN12C renal): 8.57 µM
GI50 (MALME-3M melanoma): 2.11 µM
TGI (MALME-3M melanoma): 5.58 µM
GI50 (NCI-H460 lung): 2.95 µM
TGI (NCI-H460 lung): 10.8 µM
GI50 (MDA-MB-231 breast): 1.91 µM
TGI (MDA-MB-231 breast): 6.99 µM
GI50 (HOP-62 NSCLC): 2.99 µM
TGI (HOP-62 NSCLC): 13.2 µM
GI50 (SR leukemia): 2.13 µM
TGI (SR leukemia): 7.87 µM
GI50 (TK-10 renal): 18.6 µM
TGI (TK-10 renal): 64.8 µM
GI50 (SK-MEL-2 melanoma): 2.36 µM
TGI (SK-MEL-2 melanoma): 5.89 µM
GI50 (EKVX NSCLC): 4.84 µM
TGI (EKVX NSCLC): > 100 µM
GI50 (HS 578T breast): 3 µM
TGI (HS 578T breast): 17.4 µM
GI50 (NCI/ADR-RES ovarian): > 100 µM
TGI (NCI/ADR-RES ovarian): > 100 µM
GI50 (SF-268 CNS): 2.25 µM
TGI (SF-268 CNS): 6.44 µM
GI50 (PC-3 prostate): 2.22 µM
TGI (PC-3 prostate): 6.99 µM
GI50 (COLO 205 colon): 2.12 µM
TGI (COLO 205 colon): 6.86 µM
GI50 (OVCAR-3 ovarian): 2.66 µM
TGI (OVCAR-3 ovarian): 8.04 µM
GI50 (UO-31 renal): > 100 µM
TGI (UO-31 renal): > 100 µM
GI50 (M14 melanoma): 3.27 µM
TGI (M14 melanoma): 13.1 µM
GI50 (IGROV1 ovarian): 2.89 µM
TGI (IGROV1 ovarian): 13.1 µM
GI50 (ACHN renal): 39.4 µM
TGI (ACHN renal): > 100 µM
GI50 (A498 renal): 10.9 µM
TGI (A498 renal): 30.4 µM
GI50 (KM12 colon): 2.54 µM
TGI (KM12 colon): 6.47 µM
GI50 (LOX IMVI melanoma): 2.03 µM
TGI (LOX IMVI melanoma): 4.42 µM
GI50 (HCT-15 colon): 80.1 µM
TGI (HCT-15 colon): > 100 µM
GI50 (U251 CNS): 1.48 µM
TGI (U251 CNS): 10.4 µM
GI50 (UACC-62 melanoma): 2.37 µM
TGI (UACC-62 melanoma): 6.95 µM
GI50 (HCT-116 colon): 2.57 µM
TGI (HCT-116 colon): 8.82 µM
GI50 (SK-OV-3 ovarian): 2.8 µM
TGI (SK-OV-3 ovarian): 8.3 µM
GI50 (MCF7 breast): 0.392 µM
TGI (MCF7 breast): 5.15 µM
GI50 (T-47D breast): 2.05 µM
TGI (T-47D breast): 7.54 µM
GI50 (786-0 renal): 10.4 µM
TGI (786-0 renal): 35.4 µM
GI50 (A549 NSCLC): 2.62 µM
TGI (A549 NSCLC): > 100 µM
GI50 (RXF 393 renal): 17.3 µM
TGI (RXF 393 renal): 39.4 µM
GI50 (SK-MEL-5 melanoma): 56 µM
TGI (SK-MEL-5 melanoma): > 100 µM
GI50 (DU-145 prostate): 2.1 µM
TGI (DU-145 prostate): 5.83 µM
GI50 (SF-539 CNS): 1.89 µM
TGI (SF-539 CNS): 4.87 µM
GI50 (HL-60(TB) leukemia): 2.32 µM
TGI (HL-60(TB) leukemia): 5.53 µM
GI50 (SK-MEL-28 melanoma): 2.42 µM
TGI (SK-MEL-28 melanoma): 6.32 µM
GI50 (RPMI-8226 leukemia): 1.62 µM
TGI (RPMI-8226 leukemia): 6.03 µM
GI50 (K-562 leukemia): 1.91 µM
TGI (K-562 leukemia): > 100 µM
